Values belong to the molecule of their own block, whether it stands above or below them.
What was measured:
[1] = Population PK analysis of oral semaglutide in PIONEER 1, 2, 3, 5, 8 and 9; type: in vivo, human
[2] = stated in discussion, no reference given; cited from earlier work
[3] = SUSTAIN-6, T2D population with high CV risk; cited from earlier work

- exposure compared to subjects not reporting GI disease ([1]; 174 subjects with chronic gastritis): No effect differences
- fraction of subjects with exposure levels considered below the therapeutic range ([1]; oral semaglutide 14 mg): 3%
Molecule: CC[C@H](C)[C@H](NC(=O)[C@H](Cc1ccccc1)NC(=O)[C@H](CCC(=O)O)NC(=O)[C@H](CCCCNC(=O)COCCOCCNC(=O)COCCOCCNC(=O)CC[C@H](NC(=O)CCCCCCCCCCCCCCCCC(=O)O)C(=O)O)NC(=O)[C@H](C)NC(=O)[C@H](C)NC(=O)[C@H](CCC(N)=O)NC(=O)CNC(=O)[C@H](CCC(=O)O)NC(=O)[C@H](CC(C)C)NC(=O)[C@H](Cc1ccc(O)cc1)NC(=O)[C@H](CO)NC(=O)[C@H](CO)NC(=O)[C@@H](NC(=O)[C@H](CC(=O)O)NC(=O)[C@H](CO)NC(=O)[C@@H](NC(=O)[C@H](Cc1ccccc1)NC(=O)[C@@H](NC(=O)CNC(=O)[C@H](CCC(=O)O)NC(=O)C(C)(C)NC(=O)[C@@H](N)Cc1cnc[nH]1)[C@@H](C)O)[C@@H](C)O)C(C)C)C(=O)N[C@@H](C)C(=O)N[C@@H](Cc1c[nH]c2ccccc12)C(=O)N[C@@H](CC(C)C)C(=O)N[C@H](C(=O)N[C@@H](CCCNC(=N)N)C(=O)NCC(=O)N[C@@H](CCCNC(=N)N)C(=O)NCC(=O)O)C(C)C [oral semaglutide, semaglutide]
- lower exposure compared to subjects not reporting GI disease ([1]; 34 patients with gastric ulcer, non-significant): 11%

Molecule: semaglutide
- half-life [2]: ~1 week

Molecule: semaglutide [s.c. semaglutide]
- reduction in the hazard ratio of major adverse cardiovascular events (MACE) [3]: 26%

From PMC8484505 (Cell Reports Medicine, 2021)
